Key:
MSTO-211H/ERβ cells = test: Proliferation assay in MSTO-211H cells transfected with ERβ expression vector; type: cell-based; settings: 10 nM, 24 and 48 hours; transient transfection with ERβ expression vector
Excerpt: The epithelioid MPM derived REN cell line was isolated, characterized and provided by Dr. Albelda S. M. (University of Pennsylvania, Philadelphia; PA, USA). The biphasic MSTO-211H and the mesothelial MET5A cell lines were obtained from the Istituto Scientifico Tumori (IST) Cell-bank, Genoa, Italy; the MMB and MMP cell lines have been derived from pleural effusions of patients with MPM and stabilized in culture (Cacciotti P, et al., Proc Natl Acad Sci USA 2001; 98:12032-7; Pinton G., et al, Cancer Res 2009; 69:4598-604); the H2596 cell line was produced by Dr. H. I. Pass from surgical specimens derived from patients with resected MPM (Pass H. I., et al., Ann Thorac Surg 1995; 59(4):835-44). Cells were grown in RPMI medium supplemented with 10% FBS, […] streptomycin and 10 μg/ml penicillin at 37° C. in a humidified environment containing 5% CO2. Mycoplasma infection was excluded by the use of Mycoplasma Plus™ PCR Primer Set kit from Stratagene (La Jolla, Calif., USA). […]
Cells were seeded at a density of 10×10^4 cells/well in 6-well plates in RPMI medium supplemented with 10% FBS, 100 μg/ml streptomycin and 10 μg/ml penicillin and incubated over-night at 37° C. in a humidified environment containing 5% CO2 to allow adherence. […] The number of cells considered viable (unstained cells) was counted in a Bürker haemocytometer within 5 minutes after staining.

[1] = Treatment toxicity by mice body weights; type: in vivo; settings: 10 mg/kg/day s.c. during drug administration
Protocol: Animals. CD1 nude mice (males, 6 weeks old; Charles River, Calco, Italy) received intraperitoneal (i.p.) injections of 2×10^6 luciferase transduced REN cells in 0.5 mL of RPMI medium. After anesthetization and i.p. injections of 0.3 mL of 15 mg/mL D-luciferin, tumor dimension and localization of luminescent cells was monitored using the In Vivo Imaging System (IVIS) series (Xenogen Corporation, Hopkinton, Mass., USA). Regions of interest were identified around the tumor sites and were quantified as total photon counts using Living Image software (Xenogen Corporation). The values of tumor sizes were obtained, subtracting luminescence signals of each weekly measurement by the average of all animals within a treatment group on the 15th day after inoculation (day when treatment started). To evaluate treatment toxicity, mice were weighed at the start and end of treatments. Mice were killed and necropsied after 20 days of treatment. In vivo experiments were approved by Istituto Scientifico Tumori (Genoa, Italy) ethical committee and conform to the relevant regulatory standards. Mice were maintained and handled under aseptic conditions, and were allowed access to food and water ad libitum.

REN cells = test: Cell cycle analysis (propidium iodide, flow cytometry) in REN cells; type: cell-based, human; settings: 10 nM 2 hours pre-treatment, then 100 μM cisplatin 24 hours
Protocol: For cell cycle/apoptosis analysis, 5×10^5 cells were seeded in tissue culture plates and treated with 100 μM cisplatin for 24 hours or pre-treated for 2 hours with 10 nM Compound (I) followed by wash-off and continued growth in normal medium±100 μM cisplatin, for additional 24 hours at 37° C. in a 5% CO2 atmosphere. After incubation, detached and suspended cells were harvested in complete RPMI and centrifuged at 500×g for 10 minutes. Pellets were washed with PBS, fixed in ice-cold 75% ethanol at 4° C., treated with […] RNAse A for 1 hour at 37° C., stained with 25 μg/mL propidium iodide and finally analyzed by using a flow cytometer FACS (Becton Dickinson, San Jose, Calif., USA) and Modfit software (Verity Software House, Topsham, Me., USA).
REN cells were treated for 24 hours with 100 μM cisplatin or pre-treated 2 hours with 10 nM Compound (I) followed by wash-off and continued growth in normal medium±100 μM cisplatin, for an additional 24 hours. Cell cycle analysis was performed as described above. Control cultures were maintained in normal growth medium. After treatments, cells were stained with propidium iodide and analysed for cellular DNA content by flow cytometry.

Question: With `Cc1noc(C)c1-c1c(/C(N)=N/O)c2ccccc2n1-c1ccc(O)cc1` [Compound (I)] as the molecule, how does the “inhibition of proliferation, MSTO-211H/ERβ cells” value (MSTO-211H/ERβ cells) read?
Answer: The value was “sensitized these cells to Compound (I)”.

Question: And the “toxicity assessed by changes of mice body weights” value [1]?
Answer: The value was “not to be toxic”.

Question: And the “cell cycle phase distribution” value (REN cells)?
Answer: Its value is “significant and efficient blockage of the cell cycle in the G0/G1 phase and inhibition of cells entering the S-phase”.

Question: What about the “percentage of dead cells” value (REN cells) of the same molecule?
Answer: Its value is “significant higher percentage of dead cells”.
